Some test systems named below: OVCAR-3 ovarian; SK-MEL-5 melanoma; HCT-116 colon; NCI-H460 lung; HOP-92 NSCLC; SF-295 CNS; SNB-19 CNS; SNB-75 CNS; DMS 273 small cell lung; UACC-257 melanoma; SF-539 CNS; HL-60(TB) leukemia; UO-31 renal; A549 NSCLC; A498 renal; UACC-62 melanoma; M14 melanoma; MCF7 breast; DU-145 prostate; T-47D breast.
Holding throughout (test): NCI tumour cell line growth inhibition, 48 h

Structures are written as SMILES.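 A five-concentration, 48-hour dose response in 96-well plates underlies each endpoint, interpolated linearly between surrounding concentrations. TGI: concentration producing complete growth inhibition.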 A value given as a limit tells only on which side of the number the result lay.

On to `CCCCCCCC(=O)OCC1OC(OC)C(NC(=O)N(CCCl)N=O)C(O)C1O` (stereo unspecified), for which the TGI with OVCAR-3 ovarian is 47.7 µM; in the test on SK-MEL-5 melanoma it was 35.8 µM; in the test with HCT-116 colon, 15 µM; in the test with NCI-H460 lung, over 39.2 µM; in the test with HOP-92 NSCLC it was 9.96 µM; with SF-295 CNS it was 33 µM. Besides, the TGI was over 100 µM with SNB-19 CNS; 53.3 µM with SNB-75 CNS; 15.9 µM in the test with DMS 273 small cell lung; 41.3 µM in the test with UACC-257 melanoma; 16.5 µM with SF-539 CNS; 22.3 µM in the test with HL-60(TB) leukemia. The TGI was 45.9 µM with UO-31 renal; over 72.3 µM in the test on A549 NSCLC; 56.8 µM in the test on A498 renal; 14 µM with UACC-62 melanoma; 21.6 µM in the test on M14 melanoma.
In the case of `Cc1nn(C)cc1P(=S)(c1ccccc1)c1ccccc1`, the TGI in the test with OVCAR-3 ovarian, in the test with SK-MEL-5 melanoma, with HCT-116 colon, in the test on NCI-H460 lung, with HOP-92 NSCLC and in the test on SF-295 CNS was over 100 µM throughout. Further, the TGI in the test with SNB-19 CNS is over 100 µM; in the test with SNB-75 CNS, 85.1 µM; in the test with DMS 273 small cell lung, over 100 µM; with UACC-257 melanoma, over 100 µM; in the test on SF-539 CNS it was over 100 µM; in the test on HL-60(TB) leukemia it was 41.7 µM. In addition, the TGI in the test with UO-31 renal, with A549 NSCLC, in the test on A498 renal, in the test with UACC-62 melanoma and with M14 melanoma was over 100 µM each time.
Turning to `CN1Cc2cc3c(cc2-c2ccccc21)OCO3`, the TGI in the test with OVCAR-3 ovarian, with SK-MEL-5 melanoma, in the test with HCT-116 colon, in the test with NCI-H460 lung, with HOP-92 NSCLC and with SF-295 CNS was over 100 µM each time. The TGI with SNB-19 CNS, with SNB-75 CNS, with DMS 273 small cell lung, with UACC-257 melanoma, in the test with SF-539 CNS and with HL-60(TB) leukemia was over 100 µM in each case. The TGI in the test on UO-31 renal, in the test with A549 NSCLC, in the test on A498 renal, in the test with UACC-62 melanoma and in the test on M14 melanoma was over 100 µM each time.
Turning to `O=C(COC(=O)c1cccc2c(=O)c3ccccc3[nH]c12)Nc1ccccc1`, the TGI is over 100 µM in the test on OVCAR-3 ovarian; 42.7 µM in the test with SK-MEL-5 melanoma; 88.7 µM in the test on HCT-116 colon; over 100 µM with NCI-H460 lung; over 100 µM in the test on HOP-92 NSCLC; over 100 µM in the test on SF-295 CNS. Further, the TGI was over 100 µM with SNB-19 CNS; over 100 µM in the test on SNB-75 CNS; over 100 µM with DMS 273 small cell lung; over 100 µM with UACC-257 melanoma; over 100 µM in the test on SF-539 CNS; 36.1 µM with HL-60(TB) leukemia. Besides, the TGI in the test on UO-31 renal is 65.4 µM; in the test with A549 NSCLC, over 100 µM; in the test with A498 renal, over 100 µM; with UACC-62 melanoma, 68 µM; with M14 melanoma, over 100 µM.
With `Cc1ccc(C(=O)OCC(C)C)cc1N=NN(C)C`, the TGI in the test with OVCAR-3 ovarian is 90.6 µM; in the test on SK-MEL-5 melanoma, over 100 µM; in the test on HCT-116 colon it was over 100 µM; in the test on NCI-H460 lung it was over 100 µM; in the test on HOP-92 NSCLC, over 100 µM; in the test on SF-295 CNS, over 87.5 µM. Moreover, the TGI in the test on SNB-19 CNS is over 100 µM; in the test with MCF7 breast, over 100 µM; with DMS 273 small cell lung, over 100 µM; with UACC-257 melanoma, 71.1 µM; in the test on DU-145 prostate, over 100 µM; in the test with T-47D breast, over 100 µM. Moreover, the TGI in the test on SF-539 CNS, in the test on HL-60(TB) leukemia, in the test on UO-31 renal, in the test on A549 NSCLC, in the test with UACC-62 melanoma and in the test with M14 melanoma was over 100 µM throughout.

The values above are taken from PubChem BioAssay (NCI).
